For ten molecules, IC50 results are on record in patent publication US20200069691A1, “HETEROCYCLIC COMPOUNDS AS HIV PROTEASE INHIBITORS” (Merck Sharp & Dohme Corp., priority 2016, published 2020).

One may read the IC50 as the midpoint of a concentration-inhibition curve.

This assay has as its target T1, wild-type HIV-1 protease (Human immunodeficiency virus type 1 group M subtype B, UniProt P04585).
T1 construct: Escherichia coli expressed wild-type HIV-1 protease protein
Put plainly: Assay for Inhibition of Microbial Expressed HIV Protease (peptide substrate cleavage, LC-MS/MS readout). In kind it is biochemical. Conditions: E. coli expressed wild-type HIV-1 protease, mean of at least two independent experiments, read-out: HIV Pr Enzyme HIV1 PR IC50. The essentials:
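E. coli-expressed wild-type HIV-1 protease ([…]) was preincubated with inhibitor 30 min at room temperature in pH 5.5 acetate buffer (100 mM NaCl, 0.1% BSA). Then 400 μM octapeptide substrate was added and reacted 1 h at 30 °C; inhibition came from LC-MS/MS product peak areas, mean of ≥2 experiments.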

Take `CC(C)CCC1(c2ccc(F)cc2)NC(=N)N(Cc2ccc(C(F)(F)F)c(C(=O)N3Cc4nccnc4C3)c2)C1=O` (stereo not shown) [Compound 146, 3-[3-(5,7-dihydro-6H-pyrrolo[3,4-b]pyrazin-6-ylcarbonyl)-4-(trifluoromethyl)benzyl]-5-(4-fluorophenyl)-2-imino-5-(3-methylbutyl)imidazolidin-4-one]: the IC50 amounted to 4.07 nM.

Take `CC(C)C[C@]1(c2ccccc2)NC(=N)N([C@H](C)c2ccc(C(F)(F)F)c(C(=O)N3Cc4nccnc4C3)c2)C1=O` [Compound 147, (5R)-3-{(1R)-1-[3-(5,7-dihydro-6H-pyrrolo[3,4-b]pyrazin-6-ylcarbonyl)-4-(trifluoromethyl)phenyl]ethyl}-2-imino-5-(2-methylpropyl)-5-phenylimidazolidin-4-one]: the IC50 was found to be 4.75 nM.

Regarding `CC(C)CCC1(c2ccccc2)NC(=N)N(Cc2ccc(C(F)(F)F)c(C(=O)N3Cc4cnc(C#N)nc4C3)c2)C1=O` (stereo not shown) [Compound 148, 6-{[5-{[2-imino-4-(3-methylbutyl)-5-oxo-4-phenylimidazolidin-1-yl]methyl}-2-(trifluoromethyl)phenyl]carbonyl}-6,7-dihydro-5H-pyrrolo[3,4-d]pyrimidine-2-carbonitrile], the IC50 amounted to 5.21 nM.

Consider `CC(C)C[C@]1(c2ccccc2)NC(=N)N(Cc2ccc(C(F)(F)F)c(C(=O)N3Cc4nccnc4C3)c2)C1=O` [Compound 149, (5R)-3-[3-(5,7-dihydro-6H-pyrrolo[3,4-b]pyrazin-6-ylcarbonyl)-4-(trifluoromethyl)-benzyl]-2-imino-5-(2-methylpropyl)-5-phenyl-imidazolidin-4-one], for which the IC50 was found to be 5.24 nM.

Consider `CC(C)CC1(c2ccccc2)NC(=N)N(Cc2ccc(C(F)(F)F)c(C(=O)N3Cc4cncnc4C3)c2)C1=O` (stereo not shown) [Compound 150, 3-[3-(5,7-dihydro-6H-pyrrolo[3,4-d]pyrimidin-6-ylcarbonyl)-4-(trifluoromethyl)benzyl]-2-imino-5-(2-methylpropyl)-5-phenylimidazolidin-4-one], for which the IC50 turned out to be 5.49 nM.

On to `CC(C)CCC1(c2ccccc2)NC(=N)N(Cc2ccc(C(F)(F)F)c(C(=O)N3Cc4nccnc4C3)c2)C1=O` (stereo not shown) [Compound 151, 3-[3-(5,7-dihydro-6H-pyrrolo[3,4-b]pyrazin-6-ylcarbonyl)-4-(trifluoromethyl)benzyl]-2-imino-5-(3-methylbutyl)-5-phenylimidazolidin-4-one], for which the IC50 turned out to be 6.62 nM.

As to `CC(C)CCC1(c2ccccc2)NC(=N)N(Cc2ccc(C(F)(F)F)c(C(=O)N3Cc4cncnc4C3)c2)C1=O` (stereo not shown) [Compound 152, 3-[3-(5,7-dihydro-6H-pyrrolo[3,4-d]pyrimidin-6-ylcarbonyl)-4-(trifluoromethyl)benzyl]-2-imino-5-(3-methylbutyl)-5-phenylimidazolidin-4-one], the half-inhibitory concentration (IC50) worked out at 7.8 nM.

As for `CN1CCN(C(=O)c2cc(CN3C(=N)NC(c4ccccc4)(c4ccccc4)C3=O)ccc2C(F)(F)F)CC1=O` [Compound 153, 4-({5-[(2-imino-5-oxo-4,4-diphenylimidazolidin-1-yl)methyl]-2-(trifluoromethyl)phenyl}-carbonyl)-1-methylpiperazin-2-one], the IC50 was determined as 10.1 nM.

For the molecule `COc1ccc2c(c1)CCN(C(=O)c1cc(CN3C(=N)NC(CCC(C)C)(c4ccccc4)C3=O)ccc1C(F)(F)F)CC2` (stereo not shown) [Compound 154, 2-imino-3-{3-[(7-methoxy-1,2,4,5-tetrahydro-3H-3-benzazepin-3-yl)carbonyl]-4-(trifluoromethyl)-benzyl}-5-(3-methylbutyl)-5-phenylimidazolidin-4-one], the half-inhibitory concentration (IC50) came to 10.2 nM.

As for `CC(C)CCC1(c2ccccc2)NC(=N)N(Cc2ccc(C(F)(F)F)c(C(=O)N3CCC(n4c(=O)[nH]c5ccccc54)CC3)c2)C1=O` (stereo not shown) [Compound 155, 1-(1-{[5-{[2-imino-4-(3-methylbutyl)-5-oxo-4-phenyl-imidazolidin-1-yl]methyl}-2-(trifluoromethyl)phenyl]carbonyl}piperidin-4-yl)-1,3-dihydro-2H-benzimidazol-2-one], the IC50 came to 11.3 nM.
